According to US10351572B2, “Aryl hydrocarbon receptor antagonists and uses thereof” (Magenta Therapeutics Inc., priority 2017, dated 2019):
Values joined by “and” are separate entries in the source; they are usually repeats but may differ in a detail not shown here. Equal entries are not always repeated. Where two headings read alike, the source gives them in different places.

Columns and labels:
[1] = tested on: mobilized peripheral blood CD34+ cells; assay: CD34+ hematopoietic stem/progenitor cell expansion (CD34+ frequency and number), Example 9; format: cell-based; details: dose response beginning at 10 pM, day 7, flow cytometry
Procedure: To determine the activity of a scale-up batch of Compound (24), individual enantiomers, and two derivatives Compound (27) and Compound (28) were evaluated for i) the ability to expand CD34+ hematopoietic stem/progenitor cells and ii) AHR antagonist activity. The compounds were compared to control AHR antagonist SR1, an additional control AHR antagonist, and stored sample of Compound (24) CD34+ Frequency and Number
Methods—mobilized peripheral blood CD34+ cells were cultured in the presence of compound, in dose response beginning at 10 pM. CD34+ cell frequency and number was assessed at day 7 by flow cytometry. All synthesized compounds show equivalent expansion capabilities if not greater than SR1.

AHR = molecular target: T1, AHR (Homo sapiens, UniProt P35869); assay: AHR antagonist assay, HepG2 cells transiently transfected with pGudLuc6.1 luciferase plasmid, Example 9; format: cell-based; details: luciferase activity 24 hours post-culture
T1 construct: HepG2 cells transiently transfected with the pGudLuc6.1 plasmid were thawed and 25,000 cells were plated per well; endogenous in cells; host or cells: HepG2
T1 sequence (P35869 11-848): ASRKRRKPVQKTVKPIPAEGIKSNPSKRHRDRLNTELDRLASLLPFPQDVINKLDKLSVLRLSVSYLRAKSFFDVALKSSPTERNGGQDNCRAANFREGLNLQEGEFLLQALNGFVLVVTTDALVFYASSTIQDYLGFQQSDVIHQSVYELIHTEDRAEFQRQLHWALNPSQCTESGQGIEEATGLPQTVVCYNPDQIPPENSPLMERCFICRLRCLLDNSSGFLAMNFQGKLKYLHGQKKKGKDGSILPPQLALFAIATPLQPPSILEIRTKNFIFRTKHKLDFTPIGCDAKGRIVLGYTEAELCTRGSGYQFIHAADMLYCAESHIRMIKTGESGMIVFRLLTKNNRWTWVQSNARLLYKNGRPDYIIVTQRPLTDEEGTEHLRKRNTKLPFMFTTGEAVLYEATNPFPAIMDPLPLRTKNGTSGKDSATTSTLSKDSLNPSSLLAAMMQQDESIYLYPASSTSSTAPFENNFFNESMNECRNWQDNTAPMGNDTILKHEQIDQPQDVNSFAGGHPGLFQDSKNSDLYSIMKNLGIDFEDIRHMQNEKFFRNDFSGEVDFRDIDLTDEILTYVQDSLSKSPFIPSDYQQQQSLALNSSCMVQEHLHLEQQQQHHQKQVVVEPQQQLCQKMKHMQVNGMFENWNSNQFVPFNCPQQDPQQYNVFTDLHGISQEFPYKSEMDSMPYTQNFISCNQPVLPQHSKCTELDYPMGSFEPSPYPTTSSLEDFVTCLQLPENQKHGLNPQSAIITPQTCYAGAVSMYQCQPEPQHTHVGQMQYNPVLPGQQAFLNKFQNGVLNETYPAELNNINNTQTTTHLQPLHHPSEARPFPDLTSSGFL
Procedure: Methods—HepG2 cells transiently transfected with the pGudLuc6.1 plasmid were thawed and 25,000 cells were plated per well and immediately treated the AHR agonist VAF347 (fixed at 40 nM) and/or the indicated AHR antagonists. Luciferase activity was measured 24 hours post-culture, corresponding to endogenous AHR antagonist activity (without VAF347, FIG. 14) or in the presence of VAF347 (FIG. 15). All synthesized compounds show equivalent AHR antagonist activity if not greater than SR1.

[2] = molecular target: T2, aryl hydrocarbon receptor (Homo sapiens, UniProt P35869); assay: Aryl hydrocarbon receptor-driven luciferase reporter in transiently transfected HepG2 cells, Example 3; format: cell-based; details: absence or presence of VAF347 (80 nM); six hours after plating
T2 construct: HepG2 cells transiently transfected with the pGudLuc6.1 plasmid were thawed and 25,000 cells were plated per well; endogenous in cells; host or cells: HepG2
T2 sequence (P35869 11-848): T1 sequence (P35869 11-848)
Procedure: To determine the ability of compounds (5) and (16) to inhibit the activity of the aryl hydrocarbon receptor and to induce the proliferation of hematopoietic stem cells, a series of HSC expansion experiments were conducted. In the first experiment, compounds (5) and (16) were assessed for their capacity to attenuate aryl hydrocarbon receptor signaling. To this end, HepG2 hepatocytes were transiently transfected with a luciferase reporter construct under the control of a promoter responsive to aryl hydrocarbon receptor signal transduction. The cells were plated at a density of 25,000 cells per well in a microtiter plate. The HepG2 cells were immediately treated with compound (5) or (16) in the absence (FIG. 1) or presence (FIG. 2) of the aryl hydrocarbon receptor agonist, VAF347 (80 nM). Luciferase activity was subsequently analyzed six hours after plating.

[3] = tested on: mononuclear peripheral blood cells enriched in CD34+ cells; assay: Proliferation of hematopoietic stem cells, percentage of CD34+ cells after seven days, Example 3; format: cell-based; details: for potency of hematopoietic stem cell expansion compared with SR1: compared with potency reported for SR1; for hematopoietic stem cell growth (percentage of CD34+ cells): seven days following plating
Procedure: To assess the ability of compounds (5) and (16) to induce the proliferation of hematopoietic stem cells, a population of mononuclear peripheral blood cells enriched in CD34+ cells were plated at a density of 2,350 cells per well (50 μL) in a microtiter plate in the presence of each compound. The percentage of CD34+ hematopoietic stem cells was assessed seven days following the initial plating. […] The compounds of formula (I) and (II) described herein can thus be used to expand hematopoietic stem cells ex vivo in order to obtain sufficient quantities of such cells for in vivo applications.

NSG mice = assay: Transplantation into NSG mice of human hematopoietic stem cells expanded ex vivo with AHR antagonist; blood chimerism and brain microglia engraftment, Example 5; format: in vivo; details: NSG mice transplanted with cord blood CD34+ cells expanded 10 days with 500 nM AHR antagonist
Procedure: To investigate the ability of hematopoietic stem cells to differentiate into microglial cells and subsequently engraft in central nervous system tissue, such as the brain of a hematopoietic stem cell transplant recipient, a series of experiments were conducted in which human hematopoietic stem cells were first expanded ex vivo in the presence of an aryl hydrocarbon receptor antagonist (compound (16) or compound (24)) and were subsequently transplanted into NSG mice, in accordance with the scheme shown in FIG. 4. The frequency of human CD45+ cells in the peripheral blood of the mice was then determined, as well as the profile of microglial cells in the brain tissue using flow cytometry and immunohistochemistry techniques. […]
At the time of thaw, an equal number of cells to the starting cell cultures were injected into NSG mice, sublethally irradiated (200 cGy) 24 hours prior to injection. […] Peripheral blood was harvested by retro-orbital bleeding at approximately weeks 4 and 8 or by cardiac puncture at week 12 and chimerism was assessed by flow cytometry using antibodies against hCD45, mCD45, hCD33, hCD19, hCD3 and a viability dye. […]
Embedded brains were sectioned at approximately 5 microns and stained with Ku80 (brown) and Iba-1 (red) primary antibodies). Mouse brains were analyzed from each transplanted mouse and five levels were analyzed each. […]

[4] = VAF347 fixed at 40 nM, read-out: AHR Antagonist Activity in the Presence of VAF347 EC50
[5] = without VAF347, read-out: Endogenous AHR Antagonist Activity EC50

| SMILES | EC50 ([1]; 168 h) | EC50 (AHR; [4]) | EC50 (AHR; [5]) | EC50 [1] | suppression of aryl hydrocarbon receptor activity (luciferase) [2] | potency of hematopoietic stem cell expansion compared with SR1 [3] | hematopoietic stem cell growth (percentage of CD34+ cells) [3] | frequency of hCD45+ cells in peripheral blood (NSG mice) | engraftment of hCD45+CD11b+ microglial cells in the brain (NSG mice; brains at 3 months) |
| --- | --- | --- | --- | --- | --- | --- | --- | --- | --- |
| COCCC(C)c1cnc2c(NCCc3c[nH]c4ccccc34)nc(-c3cncc(F)c3)cn12 (racemic) [Compound (24), 6-(5-fluoropyridin-3-yl)-N-[2-(1H-indol-3-yl)ethyl]-3-(3-methoxy-1-methylpropyl)imidazo[1,2-a]pyrazin-8-amine] | 7 nM | 13 nM and 11 nM | 1 nM | – | – | – | – | – | – |
| COCCC(C)c1cnc2c(NCCc3c[nH]c4ccccc34)nc(-c3cncc(F)c3)cn12 (single isomer, unassigned) [Compound (24) - Enantiomer Peak 1, 6-(5-fluoropyridin-3-yl)-N-[2-(1H-indol-3-yl)ethyl]-3-(3-methoxy-1-methylpropyl)imidazo[1,2-a]pyrazin-8-amine] | – | 12 nM | 1 nM | 11 nM | – | – | – | – | – |
| COCCC(C)c1cnc2c(NCCc3c[nH]c4ccccc34)nc(-c3cncc(F)c3)cn12 (single isomer, unassigned) [Compound (24) - Enantiomer Peak 2, 6-(5-fluoropyridin-3-yl)-N-[2-(1H-indol-3-yl)ethyl]-3-(3-methoxy-1-methylpropyl)imidazo[1,2-a]pyrazin-8-amine] | – | 6 nM | 0.4 nM | 4 nM | – | – | – | – | – |
| CCC(C)c1cnc2c(NCCc3c[nH]c4ccccc34)cc(-c3cncc(F)c3)cn12 (centres unmarked) [Compound (5)] | – | – | – | – | capable of suppressing aryl hydrocarbon receptor activity even in the presence of the activator VAF347 | potency greater than that reported for StemRegeninl (SR1) | capable of potentiating hematopoietic stem cell growth in a dose-dependent manner | – | – |
| CCC(C)c1cnc2c(NCCc3c[nH]c4ccccc34)nc(-c3cncc(F)c3)cn12 (centres unmarked) [Compound (16)] | – | – | – | – | capable of suppressing aryl hydrocarbon receptor activity even in the presence of the activator VAF347 | potency greater than that reported for StemRegeninl (SR1) | capable of potentiating hematopoietic stem cell growth in a dose-dependent manner | increased frequency of hCD45+ cells in peripheral blood | increased engraftment of hCD45+CD11b+ microglial cells in the brain |
| COCCCC(C)c1cnc2c(NCCc3c[nH]c4ccccc34)nc(-c3cncc(F)c3)cn12 (centres unmarked) [Compound (27), 6-(5-fluoropyridin-3-yl)-N-[2-(1H-indol-3-yl)ethyl]-3-(4-methoxy-1-methylbutyl)imidazo[1,2-a]pyrazin-8-amine] | 8 nM | 9 nM | 2 nM | – | – | – | – | – | – |
| CCOCCC(C)c1cnc2c(NCCc3c[nH]c4ccccc34)nc(-c3cncc(F)c3)cn12 (centres unmarked) [Compound (28), 3-(3-ethoxy-1-methylpropyl)-6-(5-fluoropyridin-3-yl)-N-[2-(1H-indol-3-yl)ethyl]imidazo[1,2-a]pyrazin-8-amine] | 10 nM | 30 nM | 2 nM | – | – | – | – | – | – |
| CC(C)n1cnc2c(NCCc3ccc(O)cc3)nc(-c3csc4ccccc34)nc21 [SR1, reference compound] | – | 193 nM | 33 nM | 112 nM | – | – | – | – | – |
